Test results as given in US8895571B2, “Isoindolinone and pyrrolopyridinone derivatives as Akt inhibitors” (Incyte Corporation, priority 2011, dated 2014).

Assays:
[1] = target: T1, Full length PKA (Homo sapiens, UniProt P17612); assay: PKA in vitro enzymatic assay (HTRF); format: biochemical; conditions: 0.035 nM enzyme solution, substrate solution with 5 mM ATP, 25° C. 1 hr
T1 construct: Full length PKA (cat #P2912); purchased Invitrogen P2912
Outline: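 IC50 came from curve fitting of percent inhibition across an 11-point, 3-fold compound series, with HTRF read after EDTA quench and Tb-labelled p-S133 antibody detection. Enzyme (0.035 nM solution) and substrate (0.1 μM fluorescein-CREBtide solution containing 5 mM ATP) reacted for 1 h at 25°C. The buffer was HEPES 50 mM pH 7.8 with 10 mM MgCl2, 5 mM DTT and 0.005% Tween20.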

[2] = target: T2, Full length Akt2 (Homo sapiens, UniProt P31751); assay: In vitro Akt kinase enzymatic assay (HTRF), Akt2; format: biochemical; conditions: 0.6 nM Akt2, substrate solution with 5 mM ATP, 25° C. 1 hr
T2 construct: Full length Akt1 (cat #P2999), Akt2 (cat #PV3184); purchased PerkinElmer PV3184
Outline: (§1)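 Full-length enzyme (0.4 nM Akt1 or 0.6 nM Akt2/Akt3 in the enzyme solution) was combined with a substrate solution of 0.1 μM ULight-Crosstide plus 5 mM ATP in pH 7.8 HEPES/MgCl2/DTT/Tween20 buffer and reacted 1 hr at 25° C. The EDTA stop contained Eu anti-phospho-Crosstide; IC50 was fitted from 11-point HTRF inhibition curves.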

[3] = target: T3, Full length Akt3 (Homo sapiens, UniProt Q9Y243); assay: In vitro Akt kinase enzymatic assay (HTRF), Akt3; format: biochemical; conditions: 0.6 nM Akt3, substrate solution with 5 mM ATP, 25° C. 1 hr
T3 construct: Full length Akt1 (cat #P2999), Akt2 (cat #PV3184), Akt3 (cat #PV3185); purchased PerkinElmer PV3185
Outline: as §1

[4] = system: LNCaP cells (human prostate tumor cell line); assay: Akt LNCaP proliferation assay (MTS); format: cell-based; conditions: 48 hours
Outline: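 Cells plated at 10,000/well in RPMI with 2% FBS overnight at 37° C., 5% CO2, then exposed to compound at 1000 nM to 0.5 nM (3-fold dilutions) for 48 hours. Viable cells measured by MTS colorimetric read-out after 2 hours; IC50 taken as concentration giving 50% inhibition of total proliferation.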

[5] = target: T4, Full length Akt1 (Homo sapiens, UniProt P31749); assay: In vitro Akt kinase enzymatic assay (HTRF), Akt1; format: biochemical; conditions: 0.4 nM Akt1, substrate solution with 5 mM ATP, 25° C. 1 hr
T4 construct: Full length Akt1 (cat #P2999); purchased PerkinElmer P2999
Outline: as §1

[6] = 2% fetal bovine serum, class symbols
[7] = given as a bound, final concentrations 1000 nM to 0.5 nM

T4 sequence (P31749 whole entry): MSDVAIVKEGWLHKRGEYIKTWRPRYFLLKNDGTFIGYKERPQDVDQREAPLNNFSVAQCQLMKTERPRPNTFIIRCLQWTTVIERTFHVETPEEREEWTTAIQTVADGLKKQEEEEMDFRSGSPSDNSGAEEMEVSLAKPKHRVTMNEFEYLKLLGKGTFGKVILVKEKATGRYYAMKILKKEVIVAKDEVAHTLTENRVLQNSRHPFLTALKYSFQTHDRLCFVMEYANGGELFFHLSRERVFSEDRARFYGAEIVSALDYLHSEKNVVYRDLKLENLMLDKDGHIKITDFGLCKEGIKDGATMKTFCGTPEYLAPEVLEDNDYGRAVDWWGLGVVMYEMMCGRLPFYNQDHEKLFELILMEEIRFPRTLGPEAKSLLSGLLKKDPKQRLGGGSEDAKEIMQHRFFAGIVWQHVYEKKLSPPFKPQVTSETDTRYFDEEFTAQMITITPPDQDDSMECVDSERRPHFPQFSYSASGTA
T3 sequence (Q9Y243 whole entry): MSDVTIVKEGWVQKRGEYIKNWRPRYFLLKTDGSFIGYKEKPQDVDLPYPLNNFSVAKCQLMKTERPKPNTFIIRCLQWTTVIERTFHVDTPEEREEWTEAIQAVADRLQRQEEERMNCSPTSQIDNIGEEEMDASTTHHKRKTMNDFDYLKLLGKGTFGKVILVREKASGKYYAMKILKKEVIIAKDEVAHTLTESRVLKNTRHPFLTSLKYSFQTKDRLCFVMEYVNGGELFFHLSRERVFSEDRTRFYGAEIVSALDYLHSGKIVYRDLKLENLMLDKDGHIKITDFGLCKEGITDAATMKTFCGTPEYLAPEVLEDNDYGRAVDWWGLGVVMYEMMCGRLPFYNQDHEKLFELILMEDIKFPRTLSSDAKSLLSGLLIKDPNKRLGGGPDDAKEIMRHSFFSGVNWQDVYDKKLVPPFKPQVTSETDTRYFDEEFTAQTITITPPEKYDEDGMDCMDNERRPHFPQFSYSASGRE
T2 sequence (P31751 whole entry): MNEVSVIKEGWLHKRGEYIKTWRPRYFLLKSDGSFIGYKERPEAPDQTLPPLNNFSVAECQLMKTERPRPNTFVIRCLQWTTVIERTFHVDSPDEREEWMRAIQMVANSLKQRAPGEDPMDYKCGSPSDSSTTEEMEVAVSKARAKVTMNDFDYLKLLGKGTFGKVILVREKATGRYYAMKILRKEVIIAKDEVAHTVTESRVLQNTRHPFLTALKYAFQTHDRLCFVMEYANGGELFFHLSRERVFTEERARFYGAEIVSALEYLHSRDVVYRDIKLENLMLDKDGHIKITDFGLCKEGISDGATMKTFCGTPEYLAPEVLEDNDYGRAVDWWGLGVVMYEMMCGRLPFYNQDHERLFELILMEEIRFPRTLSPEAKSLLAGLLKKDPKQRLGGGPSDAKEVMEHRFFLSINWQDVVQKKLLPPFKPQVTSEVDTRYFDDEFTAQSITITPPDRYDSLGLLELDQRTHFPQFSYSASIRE

SMILES	IC50 [1] [nM]	IC50 [2] [nM]	IC50 [3] [nM]	IC50 [4, 6] [nM]	IC50 [5] [nM]	IC50 [4, 7] [nM]
Cn1ncc(COC2CCC2)c1-c1ccc2c(c1)CN([C@H](CN)Cc1cccc(F)c1)C2=O [Example 8, 2-[(1S)-2-amino-1-(3-fluorobenzyl)ethyl]-5-(4-cyclobutoxymethyl-1-methyl-1H-pyrazol-5-yl)isoindolin-1-one]	500 to 5000	< 500	< 500	< 500	< 500	
Cn1nccc1-c1ccc2c(c1)CN([C@H](CN)Cc1ccccn1)C2=O [Example 79, 2-[(1S)-2-amino-1-(pyridin-2-ylmethyl)ethyl]-5-(1-methyl-1H-pyrazol-5-yl)isoindolin-1-one]	> 5000	< 500	500 to 5000	500 to 5000	< 500	
Cn1nccc1-c1ccc2c(c1)CN([C@@H](CN)c1ccccc1)C2=O [Example 116, 2-[(1R)-2-amino-1-phenylethyl]-5-(1-methyl-1H-pyrazol-5-yl)isoindolin-1-one]	500 to 5000	< 500	500 to 5000	< 500	< 500	
CCSCc1cnn(C)c1-c1ccc2c(c1)CN([C@H](CN)Cc1cc(F)cc(F)c1)C2=O [Example 50, 2-[(1S)-2-amino-1-(3,5-difluorobenzyl)ethyl]-5-[4-(ethylthio)methyl-1-methyl-1H-pyrazol-5-yl]isoindolin-1-one]	> 5000	< 500	< 500	< 500	< 500	
Cn1ncc(Cl)c1-c1ccc2c(c1)CN([C@H](CN)Cc1cccc(F)c1)C2=O [Example 2, 2-[(1S)-2-amino-1-(3-fluorobenzyl)ethyl]-5-(4-chloro-1-methyl-1H-pyrazol-5-yl)isoindolin-1-one]	500 to 5000	< 500	< 500	< 500	< 500	
CCOCc1cnn(C)c1-c1ccc2c(c1)CN([C@H](CN)Cc1cccc(F)c1)C2=O [Example 5, 2-[(1S)-2-amino-1-(3-fluorobenzyl)ethyl]-5-(4-ethoxymethyl-1-methyl-1H-pyrazol-5-yl)isoindolin-1-one]	> 5000	< 500	< 500	< 500	< 500	
CCn1nccc1-c1ccc2c(c1)CN([C@H](CN)Cc1cc(F)cc(F)c1)C2=O [Example 128, 2-[(1S)-2-amino-1-(3,5-difluorobenzyl)ethyl]-5-(1-ethyl-1H-pyrazol-5-yl)isoindolin-1-one]	> 5000	< 500	< 500	< 500	< 500	
CCOCc1cnn(C)c1-c1ccc2c(c1)CN([C@H](CN)Cc1cc(F)cc(F)c1)C2=O [Example 44, 2-[(1S)-2-amino-1-(3,5-difluorobenzyl)ethyl]-5-(4-ethoxymethyl-1-methyl-1H-pyrazol-5-yl)isoindolin-1-one]	500 to 5000	< 500	< 500	< 500	< 500	
Cn1ncc(Cl)c1-c1ccc2c(c1)CN([C@H](CN)Cc1ccccc1)C2=O [Example 56, 2-[(1S)-2-amino-1-benzyl-ethyl]-5-(4-chloro-1-methyl-1H-pyrazol-5-yl)isoindolin-1-one]	500 to 5000	< 500	< 500	< 500	< 500	
CCCOCc1cnn(C)c1-c1ccc2c(c1)CN([C@H](CN)Cc1cc(F)cc(F)c1)C2=O [Example 46, 2-[(1S)-2-amino-1-(3,5-difluorobenzyl)ethyl]-5-[4-(1-propoxymethyl)-1-methyl-1H-pyrazol-5-]isoindolin-1-one]	500 to 5000	< 500	< 500	< 500	< 500	

Further lines, results first:

IC50 [1] [nM]	IC50 [2] [nM]	IC50 [3] [nM]	IC50 [4, 6] [nM]	IC50 [5] [nM]	IC50 [4, 7] [nM]	SMILES
> 5000	< 500	< 500	< 500	< 500		Cn1ncc(COCC2CC2)c1-c1ccc2c(c1)CN([C@H](CN)Cc1cccc(F)c1)C2=O [Example 9, 2-[(1S)-2-amino-1-(3-fluorobenzyl)ethyl]-5-(4-cyclopropylmethoxymethyl-1-methyl-1H-pyrazol-5-yl)isoindolin-1-one]
> 5000	500 to 5000	< 500	500 to 5000	< 500		CSCc1cnn(C)c1-c1ccc2c(c1)CN([C@H](CN)Cc1cc(F)cc(F)c1)C2=O [Example 49, 2-[(1S)-2-amino-1-(3,5-difluorobenzyl)ethyl]-5-[4-(methylthio)methyl-1-methyl-1H-pyrazol-5-yl]isoindolin-1-one]
500 to 5000	< 500	< 500	500 to 5000	< 500		Cn1ncc(Cl)c1-c1ccc2c(c1)CN([C@H](CN)Cc1cccc(C(F)(F)F)c1)C2=O (stereo in doubt) [Example 61, 2-{2-amino-1-[3-(trifluoromethyl)benzyl]ethyl}-5-(4-chloro-1-methyl-1H-pyrazol-5-yl)isoindolin-1-one]
> 5000	< 500	500 to 5000	< 500	< 500		Cn1nccc1-c1ccc2c(c1)CN([C@H](CN)Cc1cccnc1)C2=O [Example 78, 2-[(1S)-2-amino-1-(pyridin-3-ylmethyl)ethyl]-5-(1-methyl-1H-pyrazol-5-yl)isoindolin-1-one]
> 5000	< 500	500 to 5000	< 500	500 to 5000		Cn1nccc1-c1ccc2c(c1)CN([C@H](CN)Cc1cccc(C#N)c1)C2=O [Example 75, 3-{(2S)-3-amino-2-[5-(1-methyl-1H-pyrazol-5-yl)-1-oxo-1,3-dihydro-2H-isoindol-2-yl]propyl}benzonitrile]
> 5000	> 5000	> 5000		500 to 5000	> 1000	CC(C)Cn1nccc1-c1ccc2c(c1)CN([C@H](CN)Cc1cc(F)cc(F)c1)C2=O [Example 130, 2-[(1S)-2-amino-1-(3,5-difluorobenzyl)ethyl]-5-(1-isobutyl-1H-pyrazol-5-yl)isoindolin-1-one]
> 5000	> 5000	> 5000		500 to 5000	> 1000	CC(C)Cn1nccc1-c1ccc2c(c1)CN([C@H](CN)Cc1cccc(F)c1)C2=O [Example 129, 2-[(1S)-2-amino-1-(3-fluorobenzyl)ethyl]-5-(1-isobutyl-1H-pyrazol-5-yl)isoindolin-1-one]
> 5000	< 500	< 500	< 500	< 500		CC(C)OCc1cnn(C)c1-c1ccc2c(c1)CN([C@H](CN)Cc1ccccc1)C2=O [Example 58, 2-[(1S)-2-amino-1-benzyl-ethyl]-5-[4-(2-propoxymethyl)-1-methyl-1H-pyrazol-5-yl]isoindolin-1-one]
< 500	< 500	< 500	< 500	< 500		Cn1ncc(F)c1-c1ccc2c(c1)CN([C@H](CN)Cc1cc(F)cc(F)c1)C2=O [Example 51, 2-[(1S)-2-amino-1-(3,5-difluorobenzyl)ethyl]-5-(4-fluoro-1-methyl-1H-pyrazol-5-yl)isoindolin-1-one]
> 5000	< 500	< 500	< 500	< 500		CCCOCc1cnn(C)c1-c1ccc2c(c1)CN([C@H](CN)Cc1cccc(F)c1)C2=O [Example 7, 2-[(1S)-2-amino-1-(3-fluorobenzyl)ethyl]-5-[4-(1-propoxymethyl)-1-methyl-1H-pyrazol-5-yl]isoindolin-1-one]
500 to 5000	< 500	< 500	< 500	< 500		Cn1nccc1-c1ccc2c(c1)CN([C@H](CN)CC1CCCCC1)C2=O [Example 131, 2-[(1S)-2-amino-1-(cyclohexylmethyl)ethyl]-5-(1-methyl-1H-pyrazol-5-yl)isoindolin-1-one]
> 5000	< 500	< 500	< 500	< 500		CC(C)OCc1cnn(C)c1-c1cc2c(cn1)C(=O)N([C@H](CN)Cc1cc(F)cc(F)c1)C2 [Example 106, 2-[(1S)-2-amino-1-(3,5-difluoro-benzyl)ethyl]-6-[4-(2-propoxy-methyl)-1-methyl-1H-pyrazol-5-yl]-1,2-dihydro-3H-pyrrolo[3,4-c]pyridin-3-one]
